Results taken from ChEMBL document CHEMBL3507680, “University of Dundee, Gates Library screen for HepG2 cell viability”.

Assay: Human HepG2 cell viability assay in 384 well format
Format: toxicity, cell-based
Design: dose 125 nL, time 70.5 hour; cytotoxicity at 70.5 h: concentration not given beside the values
Conditions: HepG2 cells, read-out: Inhibition

Structure (SMILES) | cytotoxicity at 70.5 h [%]
CC(=O)N1CCC(c2nc(Cc3ccccc3)no2)C1 (stereo not given) | -3.88
Cc1nc(C)n(CC2CCCN2CC(=O)N(C)Cc2ccc(C)o2)n1 (stereo not given) | -4.56
CN(CCOc1cccc(CNS(C)(=O)=O)c1)C1CCOCC1 | 1.39
CN(Cc1cnn(C)c1)C(=O)c1ccnc(OC2CCC2)c1 | 15.8
CCc1noc(CN(C)C(=O)c2ccnc(OC3CCC3)c2)n1 | -0.589
CC(=O)N1CCCN(Cc2nnc(C(C)(C)C)o2)CC1 | 5.23
Cn1nc(C(=O)N(CC(F)(F)F)c2cccc(Cl)c2)ccc1=O | 9.92
Cc1cccc2c(CCNC(=O)NCC[S+](C)[O-])c[nH]c12 (stereo not given) | 0.892
Cc1nc(C(=O)N(C)C2CC(=O)N(Cc3ccccc3)C2=O)cs1 (stereo not given) | -5.65
CCCc1nc(CNc2cc(CS(C)(=O)=O)ccc2Cl)no1 | -0.135
CCN(Cc1cnn(C)c1)S(=O)(=O)N1CCCC1c1ccco1 (stereo not given) | 3.59
COCC(C)(C#N)NC(=O)COc1ccccc1 (stereo not given) | -0.947
COC(=O)c1cc(C(=O)N2CCc3ccc(F)cc3C2C)ccn1 (stereo not given) | -0.61
CCC(CO)NC(=O)Cc1ccc(NC(=O)CC2=CCCCC2)cc1 (stereo not given) | -3.34
CN1CC(Nc2ccc(Br)cc2C#N)CCC1=O (stereo not given) | -0.708
COc1ccnc(N(C)Cc2ccccc2O)n1 | 1.42
CCCN(CC1CC1)S(=O)(=O)c1ccc(NC(C)=O)cc1 | -1.65
CN(CCN1CCOCC1)S(=O)(=O)CC1CCCC1 | -0.906
CN(C(=O)c1ccc[nH]1)C1CC(=O)N(Cc2ccccc2)C1=O (stereo not given) | -4.14
Cc1cc(C)n(CC2CCCCN2C(=O)c2sccc2C#N)n1 (stereo not given) | 1.28

Structure (SMILES) | cytotoxicity at 70.5 h [%]
Cc1ccc(C2CCCN2S(=O)(=O)N(C)Cc2cnn(C)c2)o1 (stereo not given) | 13.3
COc1ccc(CN2CCN(C(C)=O)CC2)cc1SC(F)(F)F | 0.0728
N#Cc1c(N2CCCN(C3CCOCC3)CC2)nc2ccccn12 | -2.26
CC(=O)N1CCC(Nc2ccc(Br)cc2C#N)C1 (stereo not given) | 4.92
CN(c1ncnc2c1CCC2)C1CCCN(c2cccnn2)C1 (stereo not given) | 1.68
Cc1ccc(F)cc1NC(=O)CCn1cncn1 | -8.38
Cc1cc(F)ccc1NCC(=O)NCC(F)(F)F | 0.946
CC(=O)Nc1nc(C(=O)NCCOc2ccccc2F)cs1 | -15.5
CCN(CC)Cc1ccccc1NC(=O)N(C)Cc1ccc(OC)cc1 | -15.6
Cn1ccnc1COc1ccc(CSc2nnnn2C)cc1 | -11.4
Cc1cc(C(=O)N2CCC(N3CCNC3=O)CC2)nn1C(C)(C)C | -16.5
Cc1cnn(CC2CC2)c1NC(=O)c1cccnc1O | 14.4
NC(=O)NC(=O)CCN1C(=O)CC(Cc2ccc(F)cc2)C1=O (stereo not given) | -13.2
CCC(NC(=O)CS(=O)(=O)C1CCCC1)c1cc(F)ccc1F (stereo not given) | -7.05
CC(Cn1cncn1)NC(=O)Nc1ccc(F)cc1OCC1CC1 (stereo not given) | -9.35
CC(CNC(=O)c1cnccn1)Oc1cccc(Br)c1 (stereo not given) | 12.9
CNC(=O)c1ccc(OC)c(NCc2noc(-c3ccsc3)n2)c1 | -11.3
COCCn1cc(NCc2cccc3cn[nH]c23)cn1 | -5.47
COc1ccc(C(N)=O)cc1NCc1noc(-c2ccsc2)n1 | -10.8
CN(c1ncnc2sccc12)C1CCCN(c2cccnn2)C1 (stereo not given) | -13.9

Structure (SMILES) | cytotoxicity at 70.5 h [%]
CN(C(=O)CCc1ccsc1)S(C)(=O)=O | 6.34
Cc1ccc(OC(C)CNC(=O)c2c[nH]nn2)cc1 (stereo not given) | -7.76
O=C(c1cnccn1)N1CCN(c2ccnc3ccsc23)CC1 | -13.2
Cc1noc(CCNS(=O)(=O)N2CCCC2c2ccco2)n1 (stereo not given) | -8.16
Cc1cccc(-c2nnc(C(C)NCCn3cc(C)cn3)o2)c1 (stereo not given) | -7.5
CC(C)c1nc2n(n1)CC(NCCc1cccs1)CC2 (stereo not given) | -5.42
CNS(=O)(=O)c1cccc(CNC(=O)c2cnn(C)c2C)c1 | -11.8
Cc1noc(CS(=O)(=O)C/C=C/c2ccccc2)n1 | -19.1
CC(CCNC(=O)NCCc1ccc(S(N)(=O)=O)cc1)c1ccccc1 (stereo not given) | -8.25
CC(CCNC(=O)NCCNc1cnccn1)c1ccccc1 (stereo not given) | -13.6
CS(=O)(=O)NC1CCN(C(=O)CCn2cccn2)CC1 | -9.56
Cc1cc(SC(C)(C)C)ccc1NCC(=O)NC(N)=O | -9.41
NC(=O)CCN(C(=O)c1cccc2c1OCO2)c1ccccc1 | -14
CCc1ccc(C(=O)O)cc1S(=O)(=O)N(C)c1cccc(C#N)c1 | -6.98
Cc1ccc(C(=O)O)cc1S(=O)(=O)N(C)c1cccc(C#N)c1 | -7.91
CC(Cn1cccn1)C(=O)N1CCC(Nc2cccnn2)CC1 (stereo not given) | -10
CCc1ccc(C(=O)O)cc1S(=O)(=O)N(C)c1cccc(C)c1 | -7.54
Cc1c(I)cccc1C(=O)NCc1ncc[nH]1 | -0.0896
Cc1nn(CC(=O)Nc2cccc(F)c2)c(N)c1C#N | -5.02
Cc1ccc(C)c(NC(=O)Cn2nc(C)c(C#N)c2N)c1 | -10.2
